Source: the OligoGym collection
“And” between values parts separate entries of the source, which are not always exact repeats. Equal entries are not always repeated. After the bases stand the sugars from the 5' end (letter, count) and the backbone: PS all phosphorothioate, else s phosphorothioate and o phosphodiester by linkage. Methylation of C is not given here. l = locked nucleic acid (LNA); d = 2'-deoxy (DNA)

Experiments:
ANGPTL2 = details: ASO
MYH7 = details: ASO, CC-2580, 5 µM

| Sequence | target mRNA inhibition (ANGPTL2; 5 µM) [%] | target mRNA inhibition (ANGPTL2; 25 µM) [%] | target mRNA inhibition (MYH7) |
| --- | --- | --- | --- |
| GACTAACTGTTGAAATTG (sugars l3 d11 l4, PS) | 26.9 | 30.8 |  |
| CAGCTTGGCGATGATCT (sugars lddlddldlldddddll, PS) |  |  | -27% and -45% |
| CAGCTTGGCGATGATCT (sugars llddddddddldldlll, PS) |  |  | 32% and 17% |
| TTTTGAGATTCCCCCAAA (sugars l1 d13 l4, PS) | 24.8 | 24.7 |  |
| GAACCTCAATATCCTGC (sugars l1 d13 l3, PS) | 62.6 | 72.6 |  |
| CAGCTTGGCGATGATCT (sugars lddlddddddlllddll, PS) |  |  | -30% |
| TTATAAACTCCTTGCTCTA (sugars l1 d14 l4, PS) | 33.2 | 42.4 |  |
| ACAACTCACATTCATAG (sugars l4 d9 l4, PS) | 49 | 54.7 |  |
| CAGCTTGGCGATGATCT (sugars l2 d8 l3 d2 l2, PS) |  |  | 39% and 30% |
| CAGCTTGGCGATGATCT (sugars l4 d9 l4, PS) |  |  | 27% and 4% |
| TCAGCTTGGCGATGATCT (sugars lddldddddddlddllll, PS) |  |  | 43% and 45% |
| CAGCTTGGCGATGATCT (sugars ldldddddddllddlll, PS) |  |  | 46% and 28% |
| ATTTACTGTCTGCCCAG (sugars l2 d12 l3, PS) | 54.6 | 59.5 |  |
| CAGCTTGGCGATGATCT (sugars l2 d10 l1 d2 l2, PS) |  |  | 64% and 43% |
| TCCAAGGCACTCTATGAT (sugars l2 d14 l2, PS) | 13.8 | 27.7 |  |
| ATGAAGTCAGTCAGAGCCT (sugars l1 d16 l2, PS) | 27.6 | 22.6 |  |
| CTTGGCAATGATCTCATCC (sugars lldlddddddlddldldll, PS) |  |  | 1% |
| ACTGGTGAGGAGTTGTT (sugars l2 d13 l2, PS) | 26 | 25.8 |  |
| CAGCTTGGCGATGATCT (sugars lddlddldddddldlll, PS) |  |  | -32% and -42% |
| CAGCTTGGCGATGATCT (sugars l2 d6 l1 d5 l3, PS) |  |  | 7% and -9% |
| GAACTCAGCCCAGTAGA (sugars l1 d14 l2, PS) | 1.82 | 15.7 |  |
| CTTGGCAATGATCTCATCC (sugars l4 d11 l4, PS) |  |  | 61% and 50% |
| CAGCTTGGCGATGATCT (sugars lddllddddddllddll, PS) |  |  | 9% and -10% |

| Sequence | target mRNA inhibition (ANGPTL2; 5 µM) [%] | target mRNA inhibition (ANGPTL2; 25 µM) [%] | target mRNA inhibition (MYH7) |
| --- | --- | --- | --- |
| ATCTTATTTTGTTTAACA (sugars l4 d10 l4, PS) | 60.2 | 51.7 |  |
| CTTGGCAATGATCTCATCC (sugars l4 d13 l2, PS) |  |  | 60% and 45% |
| CAGCTCATTGTTGAGCAG (sugars l2 d14 l2, PS) | -19 | 7.91 |  |
| CAGCTTGGCGATGATCT (sugars lldddddddlldlddll, PS) |  |  | 21% and 29% |
| AACCCCAGAGGATATGT (sugars l1 d13 l3, PS) | 49.3 | 58.9 |  |
| CAGCTTGGCGATGATCT (sugars ldldlddddddllddll, PS) |  |  | 26% and 7% |
| CAGCTTGGCGATGATCT (sugars ldldlddddddldldll, PS) |  |  | 5% and -12% |
| CCAAGGGCACGTTTTA (sugars l2 d12 l2, PS) | -4 | 13.2 |  |
| CAGCTTGGCGATGATCT (sugars lddldddddddldllll, PS) |  |  | 7% and -16% |
| CAGCTTGGCGATGATCT (sugars llddlddddddldldll, PS) |  |  | 18% and 3% |
| CAGCTTGGCGATGATCT (sugars ldldllddlddddddll, PS) |  |  | -17% and -29% |
| CAGCTTGGCGATGATCT (sugars lldddddddddldldll, PS) |  |  | 40% and 22% |
| TCAGCTTGGCGATGATCT (sugars lddldlddddddldllll, PS) |  |  | 25% and 12% |
| CCTTGCAAAATGGTGGTT (sugars l2 d14 l2, PS) | 49.6 | 57.4 |  |
| AATTACTCCACACTTTCA (sugars l3 d12 l3, PS) | 55.7 | 61.6 |  |
| CAGCTTGGCGATGATCT (sugars lddldddddddldddll, PS) |  |  | -4% and -11% |
| CTTGGCAATGATCTCATCC (sugars l3 d12 l4, PS) |  |  | 89% and 66% |
| GCAGCTCATTGTTGAGC (sugars l1 d14 l2, PS) | 8.7 |  |  |
| CTTGGCAATGATCTCATCC (sugars ldldddddddddlddldll, PS) |  |  | 68% and 43% |
| CAGCTTGGCGATGATCT (sugars lddlldddddddldlll, PS) |  |  | 4% and -21% |
| CTTGGCAATGATCTCATCC (sugars lldddddddldddlddlll, PS) |  |  | 54% and 31% |
| CAGCTTGGCGATGATCT (sugars lllddddddddldldll, PS) |  |  | 28% and 6% |
| TCAGCTTGGCGATGATCT (sugars lddldldddddddlddll, PS) |  |  | 31% and 9% |
